Results taken from patent US9493448B2, “Cycloalkane derivatives” (Daiichi Sankyo Company, Limited, priority 2012, dated 2016).

Columns and labels:
hNav 1.7 = hNav 1.7 (Homo sapiens (Human), UniProt Q15858); test: Electrophysiological evaluation, automated patch clamp IonWorks Quattro (Population Patch Clamp mode); type: cell-based; settings: HEK293A cells stably expressing hNav 1.7/β1/β2; response to second depolarization pulse, pre-pulse potential set to V1/2; read-out: hNav1.7 IC50
[1] = tested on: mice and rats affected by thermal hyperalgesia; test: Thermal hyperalgesia assay; type: in vivo; settings: oral administration, constant dose, against the vehicle treatment group; latency to escape behaviors after thermal stimulation of hind paw;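 further: measurement times set by the study director and not disclosed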

Chain of hNav 1.7 (Q15858 whole entry): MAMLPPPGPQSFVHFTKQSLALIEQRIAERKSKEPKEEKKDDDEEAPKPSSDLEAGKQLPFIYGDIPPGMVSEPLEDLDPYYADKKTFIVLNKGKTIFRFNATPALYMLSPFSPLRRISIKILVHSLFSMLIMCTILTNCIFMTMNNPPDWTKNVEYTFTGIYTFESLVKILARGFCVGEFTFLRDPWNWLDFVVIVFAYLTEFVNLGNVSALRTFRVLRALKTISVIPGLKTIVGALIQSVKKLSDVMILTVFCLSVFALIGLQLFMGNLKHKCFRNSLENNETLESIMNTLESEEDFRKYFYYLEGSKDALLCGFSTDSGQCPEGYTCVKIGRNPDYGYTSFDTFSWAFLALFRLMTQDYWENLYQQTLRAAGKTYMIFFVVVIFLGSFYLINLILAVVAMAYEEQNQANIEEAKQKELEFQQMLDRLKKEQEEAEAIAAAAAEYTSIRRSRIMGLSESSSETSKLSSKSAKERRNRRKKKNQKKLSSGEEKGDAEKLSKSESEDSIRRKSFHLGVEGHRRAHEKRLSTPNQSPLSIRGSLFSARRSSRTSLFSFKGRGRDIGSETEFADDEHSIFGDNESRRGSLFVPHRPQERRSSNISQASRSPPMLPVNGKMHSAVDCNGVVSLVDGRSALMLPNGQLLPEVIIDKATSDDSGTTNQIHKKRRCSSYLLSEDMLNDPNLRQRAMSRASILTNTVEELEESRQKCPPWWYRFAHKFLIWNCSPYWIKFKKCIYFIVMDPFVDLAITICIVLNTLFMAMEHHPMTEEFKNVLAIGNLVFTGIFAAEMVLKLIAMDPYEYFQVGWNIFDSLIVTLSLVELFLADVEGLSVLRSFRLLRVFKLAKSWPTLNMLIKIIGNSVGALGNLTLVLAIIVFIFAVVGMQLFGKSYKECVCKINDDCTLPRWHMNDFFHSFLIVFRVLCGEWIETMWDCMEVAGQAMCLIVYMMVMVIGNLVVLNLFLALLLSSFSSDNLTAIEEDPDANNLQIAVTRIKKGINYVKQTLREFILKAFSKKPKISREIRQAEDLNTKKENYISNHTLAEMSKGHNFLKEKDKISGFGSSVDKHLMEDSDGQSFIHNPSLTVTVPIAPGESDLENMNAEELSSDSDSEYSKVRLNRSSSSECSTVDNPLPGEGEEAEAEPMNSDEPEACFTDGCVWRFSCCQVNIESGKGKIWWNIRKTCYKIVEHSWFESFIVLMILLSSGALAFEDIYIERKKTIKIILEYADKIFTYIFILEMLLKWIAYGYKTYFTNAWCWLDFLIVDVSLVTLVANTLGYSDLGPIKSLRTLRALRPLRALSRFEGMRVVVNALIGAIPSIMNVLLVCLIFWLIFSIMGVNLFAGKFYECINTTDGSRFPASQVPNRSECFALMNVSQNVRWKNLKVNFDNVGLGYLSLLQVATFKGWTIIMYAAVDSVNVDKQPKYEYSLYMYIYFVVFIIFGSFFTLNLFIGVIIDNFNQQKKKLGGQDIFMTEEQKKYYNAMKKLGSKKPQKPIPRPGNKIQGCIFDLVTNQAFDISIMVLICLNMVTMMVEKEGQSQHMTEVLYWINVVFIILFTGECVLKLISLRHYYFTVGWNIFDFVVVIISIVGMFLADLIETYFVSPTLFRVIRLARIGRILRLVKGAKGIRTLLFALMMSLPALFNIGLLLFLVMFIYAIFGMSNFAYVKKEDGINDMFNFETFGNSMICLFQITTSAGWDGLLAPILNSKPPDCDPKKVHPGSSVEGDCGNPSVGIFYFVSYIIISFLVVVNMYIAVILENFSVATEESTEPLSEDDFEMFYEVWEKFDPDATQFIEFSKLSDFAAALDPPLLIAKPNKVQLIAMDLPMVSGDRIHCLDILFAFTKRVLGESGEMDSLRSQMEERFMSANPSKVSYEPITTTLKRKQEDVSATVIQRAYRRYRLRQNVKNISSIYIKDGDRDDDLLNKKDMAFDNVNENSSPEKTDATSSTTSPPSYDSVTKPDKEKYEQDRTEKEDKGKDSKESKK
Chain of hNav 1.7 (Q07699 19-218 partner): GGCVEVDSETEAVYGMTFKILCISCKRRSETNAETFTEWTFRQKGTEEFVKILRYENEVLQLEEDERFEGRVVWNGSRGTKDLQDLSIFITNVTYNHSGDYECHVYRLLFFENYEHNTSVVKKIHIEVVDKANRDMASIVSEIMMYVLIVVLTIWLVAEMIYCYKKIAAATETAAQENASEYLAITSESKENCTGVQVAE
Chain of hNav 1.7 (O60939 30-215 partner): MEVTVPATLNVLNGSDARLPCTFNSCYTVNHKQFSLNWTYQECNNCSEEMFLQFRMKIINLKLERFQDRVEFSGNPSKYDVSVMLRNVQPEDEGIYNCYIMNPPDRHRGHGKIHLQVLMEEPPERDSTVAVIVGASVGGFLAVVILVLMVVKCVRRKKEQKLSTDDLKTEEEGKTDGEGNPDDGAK

SMILES | IC50 (hNav 1.7) [µM] | Ratio of improving pain score (%) [1]
Cn1nccc1[C@H]1CCCCC[C@@H]1Oc1ccc(S(=O)(=O)Nc2ccncn2)c(F)c1 (relative stereo) [Example 58, 2-Fluoro-4-{[(1S*,2R*)-2-(1-methyl-1H-pyrazol-5-yl)cycloheptyl]oxy}-N-(pyrimidin-4-yl)benzenesulfonamide] | 0.66 | B (“B” when the rate was 31 to 60%)
Cn1nccc1[C@H]1CCC(F)(F)C[C@@H]1Oc1cc(F)c(S(=O)(=O)Nc2nncs2)cc1Cl (relative stereo) [Example 134, 5-Chloro-4-{[(1S*,2R*)-5,5-difluoro-2-(1-methyl-1H-pyrazol-5-yl)cyclohexyl]oxy}-2-fluoro-N-(1,3,4-thiadiazol-2-yl)benzenesulfonamide] | 0.034 | B (“B” when the rate was 31 to 60%)
O=S(=O)(Nc1ccncn1)c1cc(Cl)c(O[C@H]2CC(F)(F)CC[C@@H]2c2cn[nH]c2)cc1F (relative stereo) [Example 152, 5-Chloro-4-{[(1S*,2R*)-5,5-difluoro-2-(1H-pyrazol-4-yl)cyclohexyl]oxy}-2-fluoro-N-(pyrimidin-4-yl)benzenesulfonamide] | 0.017 | B (“B” when the rate was 31 to 60%)
O=S(=O)(Nc1ccncn1)c1cc(Cl)c(O[C@H]2CCC[C@@H]2c2ccn[nH]2)cc1F (relative stereo) [Example 140, 5-Chloro-2-fluoro-4-{[(1S*,2R*)-2-(1H-pyrazol-5-yl)cyclopentyl]oxy}-N-(pyrimidin-4-yl)benzenesulfonamide] | 0.034 | B (“B” when the rate was 31 to 60%)
Cn1nccc1[C@H]1CC(F)(F)C[C@@H]1Oc1ccc(S(=O)(=O)Nc2ccncn2)c(F)c1 (relative stereo) [Example 136, 4-{[(1S*,2R*)-4,4-Difluoro-2-(1-methyl-1H-pyrazol-5-yl)cyclopentyl]oxy}-2-fluoro-N-(pyrimidin-4-yl)benzenesulfonamide] | 0.29 | B (“B” when the rate was 31 to 60%)
Cn1nccc1[C@H]1CC(C)(C)C[C@@H]1Oc1cc(F)c(S(=O)(=O)Nc2ccncn2)cc1F (relative stereo) [Example 93, 4-{[(1S*,2R*)-4,4-Dimethyl-2-(1-methyl-1H-pyrazol-5-yl)cyclopentyl]oxy}-2,5-difluoro-N-(pyrimidin-4-yl)benzenesulfonamide] | 0.065 | B (“B” when the rate was 31 to 60%)
Cn1nccc1[C@H]1CC(F)(F)CC[C@@H]1Oc1cc(F)c(S(=O)(=O)Nc2ccncn2)cc1F (relative stereo) [Example 88, 4-{[(1S*,2R*)-4,4-Difluoro-2-(1-methyl-1H-pyrazol-5-yl)cyclohexyl]oxy}-2,5-difluoro-N-(pyrimidin-4-yl)benzenesulfonamide] | 0.32 | C (“C” when the rate was 0 to 30%)
O=S(=O)(Nc1ccncn1)c1ccc(O[C@H]2CCCC[C@@H]2c2cn[nH]c2)c(F)c1F (relative stereo) [Example 83, 2,3-Difluoro-4-{[(1S*,2R*)-2-(1H-pyrazol-4-yl)cyclohexyl]oxy}-N-(pyrimidin-4-yl)benzenesulfonamide] | 0.65 | B (“B” when the rate was 31 to 60%)
Cn1nccc1[C@H]1CCC[C@@H]1Oc1cc(F)c(S(=O)(=O)Nc2nncs2)cc1Cl (relative stereo) [Example 87, 5-Chloro-2-fluoro-4-{[(1S*,2R*)-2-(1-methyl-1H-pyrazol-5-yl)cyclopentyl]oxy}-N-(1,3,4-thiadiazol-2-yl)benzenesulfonamide] | 0.28 | B (“B” when the rate was 31 to 60%)
Cn1nccc1[C@H]1CC(F)(F)C[C@@H]1Oc1cc(F)c(S(=O)(=O)Nc2ccncn2)cc1Cl (relative stereo) [Example 146, 5-Chloro-4-{[(1S*,2R*)-4,4-difluoro-2-(1-methyl-1H-pyrazol-5-yl)cyclopentyl]oxy}-2-fluoro-N-(pyrimidin-4-yl)benzenesulfonamide] | 0.024 | C (“C” when the rate was 0 to 30%)
Cn1nccc1[C@H]1CCC[C@@H]1Oc1ccc(S(=O)(=O)Nc2ccncn2)cc1Cl (relative stereo) [Example 23, 3-Chloro-4-({[(1S*,2R*)-2-(1-methyl-1H-pyrazol-5-yl)cyclopentyl]oxy}-N-(pyrimidin-4-yl)benzenesulfonamide] | 0.13 | A (“A” when the rate was 61 to 100%)
O=S(=O)(Nc1ccncn1)c1c(F)cc(O[C@H]2CC(F)(F)CC[C@@H]2c2cn[nH]c2)cc1F (relative stereo) [Example 104, 4-{[(1S*,2R*)-5,5-Difluoro-2-(1H-pyrazol-4-yl)cyclohexyl]oxy}-2,6-difluoro-N-(pyrimidin-4-yl)benzenesulfonamide] | 0.071 | B (“B” when the rate was 31 to 60%)
Cc1cc(S(=O)(=O)Nc2ccncn2)c(F)cc1O[C@H]1CCC(F)(F)C[C@@H]1c1ccnn1C (relative stereo) [Example 126, 4-{[(1S*,2R*)-4,4-Difluoro-2-(1-methyl-1H-pyrazol-5-yl)cyclohexyl]oxy}-2-fluoro-5-methyl-N-(pyrimidin-4-yl)benzenesulfonamide] | 0.014 | C (“C” when the rate was 0 to 30%)
Cn1nccc1[C@H]1CC(F)(F)C[C@@H]1Oc1cc(F)c(S(=O)(=O)Nc2ccncn2)cc1F (relative stereo) [Example 107, 4-{[(1S*,2R*)-4,4-Difluoro-2-(1-methyl-1H-pyrazol-5-yl)cyclopentyl]oxy}-2,5-difluoro-N-(pyrimidin-4-yl)benzenesulfonamide] | 0.042 | B (“B” when the rate was 31 to 60%)
Cn1nccc1[C@H]1CCC(F)(F)C[C@@H]1Oc1cc(F)c(S(=O)(=O)Nc2ccncn2)c(F)c1 (relative stereo) [Example 109, 4-{[(1S*,2R*)-5,5-Difluoro-2-(1-methyl-1H-pyrazol-5-yl)cyclohexyl]oxy}-2,6-difluoro-N-(pyrimidin-4-yl)benzenesulfonamide] | 0.05 | B (“B” when the rate was 31 to 60%)
Cc1cc(S(=O)(=O)Nc2ccncn2)ccc1O[C@H]1CCC[C@@H]1c1ccnn1C (relative stereo) [Example 52, 3-Methyl-4-{[(1S*,2R*)-2-(1-methyl-1H-pyrazol-5-yl)cyclopentyl]oxy}-N-(pyrimidin-4-yl)benzenesulfonamide] | 0.083 | B (“B” when the rate was 31 to 60%)
Cc1cc(S(=O)(=O)Nc2ccncn2)c(F)cc1O[C@H]1CC(F)(F)CC[C@@H]1c1cn[nH]c1 (relative stereo) [Example 127, 4-{[(1S*,2R*)-5,5-Difluoro-2-(1H-pyrazol-4-yl)cyclohexyl]oxy}-2-fluoro-5-methyl-N-(pyrimidin-4-yl)benzenesulfonamide] | 0.12 | A (“A” when the rate was 61 to 100%)
Cc1c(O[C@H]2CC(F)(F)CC[C@@H]2c2ccnn2C)ccc(S(=O)(=O)Nc2ccncn2)c1F (relative stereo) [Example 84, 4-{[(1S*,2R*)-5,5-Difluoro-2-(1-methyl-1H-pyrazol-5-yl)cyclohexyl]oxy}-2-fluoro-3-methyl-N-(pyrimidin-4-yl)benzenesulfonamide] | 0.036 | B (“B” when the rate was 31 to 60%)
Nc1n[nH]cc1[C@H]1CCCC[C@@H]1Oc1cc(F)c(S(=O)(=O)Nc2cscn2)c(F)c1 (relative stereo) [Example 116, 4-{[(1S*,2R*)-2-(3-Amino-1H-pyrazol-4-yl)cyclohexyl]oxy}-2,6-difluoro-N-(1,3-thiazol-4-yl)benzenesulfonamide] | 0.17 | B (“B” when the rate was 31 to 60%)
Nc1nnccc1[C@H]1CCCC[C@@H]1Oc1cc(F)c(S(=O)(=O)Nc2ccncn2)cc1F (relative stereo) [Example 82, 4-{[(1S*,2R*)-2-(3-Aminopyridazin-4-yl)cyclohexyl]oxy}-2,5-difluoro-N-(pyrimidin-4-yl)benzenesulfonamide] | 0.056 | B (“B” when the rate was 31 to 60%)
Cn1nccc1[C@H]1CCCC[C@@H]1Oc1ccc(S(=O)(=O)Nc2ccncn2)c(F)c1F (relative stereo) [Example 40, 2,3-Difluoro-4-{[(1S*,2R*)-2-(1-methyl-1H-pyrazol-5-yl)cyclohexyl]oxy}-N-(pyrimidin-4-yl)benzenesulfonamide] | 0.33 | A (“A” when the rate was 61 to 100%)
CCn1nccc1[C@H]1CCC[C@@H]1Oc1ccc(S(=O)(=O)Nc2ccncn2)c(F)c1F [Example 119, 4-{[(1S,2R)-2-(1-Ethyl-1H-pyrazol-5-yl)cyclopentyl]oxy}-2,3-difluoro-N-(pyrimidin-4-yl)benzenesulfonamide] | 0.1 | A (“A” when the rate was 61 to 100%)
Cn1nccc1[C@H]1CCCC[C@@H]1Oc1cc(F)c(S(=O)(=O)Nc2nncs2)cc1Cl (relative stereo) [Example 86, 5-Chloro-2-fluoro-4-{[(1S*,2R*)-2-(1-methyl-1H-pyrazol-5-yl)cyclohexyl]oxy}-N-(1,3,4-thiadiazol-2-yl)benzenesulfonamide] | 0.036 | A (“A” when the rate was 61 to 100%)
Cc1cc(S(=O)(=O)Nc2ccncn2)ccc1O[C@H]1CCCCC[C@@H]1c1ccnn1C (relative stereo) [Example 57, 3-Methyl-4-{[(1S*,2R*)-2-(1-methyl-1H-pyrazol-5-yl)cycloheptyl]oxy}-N-(pyrimidin-4-yl)benzenesulfonamide] | 0.075 | B (“B” when the rate was 31 to 60%)
